Measurements published in patent US20150004134A1, “TREATMENT OF CANCER WITH HETEROCYCLIC INHIBITORS OF GLUTAMINASE” (Calithera Biosciences, Inc., priority 2012, published 2015).
Like-named read-outs stand apart in the source and are kept apart here.

Columns and labels:
[1] = biological target: T1, recombinant form of Glutaminase 1 (GAC) (Homo sapiens, UniProt O94925); test: Recombinant Enzyme Assay (no preincubation); assay type: biochemical; conditions: read-out: GAC Delta N2 IC50 no preinc;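 further: GDH-coupled GAC activity read as absorbance at 340 nm in kinetic mode over 15 min at 20 °C, slopes compared with a DMSO-only control, lower slope means inhibition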
T1 sequence (O94925 137-598 isoform O94925-3 limits assumed): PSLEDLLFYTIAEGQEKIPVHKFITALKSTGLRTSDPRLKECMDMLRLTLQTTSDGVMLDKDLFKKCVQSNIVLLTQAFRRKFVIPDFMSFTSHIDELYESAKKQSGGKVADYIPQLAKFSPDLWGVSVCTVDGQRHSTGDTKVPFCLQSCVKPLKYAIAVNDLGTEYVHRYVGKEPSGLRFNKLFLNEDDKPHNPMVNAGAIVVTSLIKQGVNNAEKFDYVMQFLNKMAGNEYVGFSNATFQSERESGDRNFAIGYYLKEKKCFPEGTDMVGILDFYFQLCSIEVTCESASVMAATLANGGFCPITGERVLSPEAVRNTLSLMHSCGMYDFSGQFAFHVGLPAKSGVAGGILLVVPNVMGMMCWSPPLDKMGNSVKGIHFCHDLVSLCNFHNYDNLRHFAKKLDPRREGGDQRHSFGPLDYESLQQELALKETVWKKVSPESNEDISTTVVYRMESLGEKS
Protocol: Compounds were assessed for their ability to inhibit the enzymatic activity of a recombinant form of Glutaminase 1 (GAC) using a biochemical assay that couples the production of glutamate (liberated by GAC) to glutamate dehydrogenase (GDH) and measuring the change in absorbance for the reduction of NAD^+ to NADH. […] Enzymatic reaction was started with the addition of 50 μL of enzyme solution (50 mM Tris-HCl pH 8.0, 0.2 mM EDTA, 150 mM K2HPO4, 0.1 mg/ml BSA, 1 mM DTT, 10 ppm antifoam, 4 units/ml GDH, 4 mM adenosine diphosphate, and 4 nM GAC) and read in a Molecular Devices M5 plate reader at 20° C. The plate reader was configured to read absorbance (λ=340 nm) in kinetic mode for 15 minutes. Data was recorded as milli-absorbance units per minute and slopes were compared to a control compound and a DMSO-only control on the same plate. Compounds with slopes less than the DMSO control were considered inhibitors and plate variability was assessed using the control compound.

P493-6 (myc "on") cells = test: Cell Proliferation Assay; assay type: cell-based; conditions: P493-6, 72 h
How it was run: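 P493-6 cells with myc on, 10,000 per well in RPMI/10% FBS, exposed to serially diluted compound (0.5% DMSO final) for 72 h at 37 °C, 5% CO2. Antiproliferative effect read by Cell Titer Glo luminescence or Viacount FACS viability count.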

[2] = biological target: T1, recombinant form of Glutaminase 1 (GAC); test: Recombinant Enzyme Assay - Time Dependence (60 min preincubation); assay type: biochemical; conditions: read-out: GAC Delta N2 IC50 60 min preinc
How it was run: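 Enzyme and compound preincubated 60 min at 20° C; reaction started with substrate buffer (50 mM Tris-HCl pH 8.0, 150 mM K2HPO4, 1 mM DTT, 20 mM L-glutamine, 2 mM NAD^+). NADH formation followed at 340 nm in kinetic mode for 15 min at 20° C; slopes (mAU/min) compared with DMSO and control-compound wells.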

[3] = read-out: Cell prolif P493 72 h IC50, P493 cells, 72 h
[4] = read-out: Cell prolif P493 72 h IC50, P493-6 cells, 72 h

Structure (SMILES)	IC50 [1] [µM]	IC50 (P493-6 (myc "on") cells; [3]) [µM]	IC50 [2] [µM]	IC50 (P493-6 (myc "on") cells; [4]) [µM]
O=C(Nc1nnc(CCSCCc2nnc(NC(=O)C(CO)c3ccccc3)s2)s1)C(CO)c1ccccc1 (centres unmarked) [Compound 24]	0.51	2.3		
O=C(CCCCN1CCOCC1)OCN(C(=O)Cc1ccccc1)c1nnc(CCSCCc2nnc(N(COC(=O)OCCCN3CCOCC3)C(=O)Cc3ccccc3)s2)s1 [Compound 28]	> 50	1		
O=C(Cc1ccccc1)Nc1nnc(CCSCCc2nnc(NC(=O)C(CO)c3ccccc3)s2)s1 (centres unmarked) [Compound 29]	0.56	4.1		
O=C(Nc1nnc(CCCCc2nnc(NC(=O)C(CO)c3ccccc3)s2)s1)C(CO)c1ccccc1 (centres unmarked) [Compound 36, N,N′-[5,5′-(butane-1,4-diyl)-bis(1,3,4-thiadiazole-5,2-diyl)]-bis(3-hydroxy-2-phenylpropanamide)]	0.22	0.16	0.04	
O=C(Nc1nnc(CCSCCc2nnc(NC(=O)[C@H]3C[C@@H]3c3ccccc3)s2)s1)C1C[C@@H]1c1ccccc1 (some centres unmarked) [Compound 91]	> 20			
Nc1cccc(CC(=O)Nc2nnc(CCSCCc3nnc(NC(=O)Cc4cccc(N)c4)s3)s2)c1 [Compound 99]	2.7	1		
O=C(Nc1nnc(CCSCCc2nnc(NC(=O)C3COc4ccccc43)s2)s1)C1COc2ccccc21 (centres unmarked) [Compound 133]	0.51	0.15		
CC[C@@](O)(C(=O)Nc1nnc(CCCCc2nnc(NC(=O)[C@](O)(CC)c3ccccc3)s2)s1)c1ccccc1 [Compound 144]	> 20			
COc1cccc(CC(=O)Nc2nnc(CCCCc3nnc(NC(=O)Cc4cccc(OC)c4)s3)s2)c1 [Compound 159]	0.11	0.05		
COc1ccc(CC(=O)Nc2nnc(CCCCc3nnc(NC(=O)Cc4ccc(OC)cc4)s3)s2)cc1 [Compound 163]	0.13	> 50		
COc1cc(CC(=O)Nc2nnc(CCCCc3nnc(NC(=O)Cc4cc(OC)cc(OC)c4)s3)s2)cc(OC)c1 [Compound 205]	0.38	4.1		
O=C(Cc1cccc(OCCO)c1)Nc1nnc(CCCCc2nnc(NC(=O)Cc3cccc(OCCO)c3)s2)s1 [Compound 235]	0.11	0.21		
CC(=O)O[C@@H](C(=O)Nc1nnc(CCSCc2nnc(NC(=O)[C@H](OC(C)=O)c3ccccc3)s2)s1)c1ccccc1 [Compound 238]	13			
O=C(Nc1nnc(CCSCc2nnc(NC(=O)C(CO)c3ccccc3)s2)s1)C(CO)c1ccccc1 (centres unmarked) [Compound 239]	0.3	0.3		
O=C(Cc1cccc(OCCN2CCOCC2)c1)Nc1nnc(CCCCc2nnc(NC(=O)Cc3cccc(OCCN4CCOCC4)c3)s2)s1 [Compound 241]	0.38	0.87		
O=C(Nc1nnc(CCSCc2nnc(NC(=O)[C@@H](O)c3ccccc3)s2)s1)[C@@H](O)c1ccccc1 [Compound 242]	0.36	0.22		
CCOC(=O)Nc1nnc(CCCCc2nnc(NC(=O)Cc3ccccc3)s2)s1 [Compound 244]	0.84	1.7		
COc1cccc(CC(=O)Nc2nnc(CCSCc3nnc(NC(=O)Cc4cccc(OC)c4)s3)s2)c1 [Compound 250]	0.12	0.14		
O=C(Cc1cccc(CN2CCNCC2)c1)Nc1nnc(CCSCc2nnc(NC(=O)Cc3cccc(CN4CCNCC4)c3)s2)s1 [Compound 276]	1.5	56		
C=C(C(=O)Nc1nnc(CCCCc2nnc(NC(=O)C(OCC(=O)CCN3CCOCC3)c3ccccc3)s2)s1)c1ccccc1 (centres unmarked) [Compound 281]	0.74	0.66		
O=C(Cc1ccccn1)Nc1nnc(CCCCc2nnc(NC(=O)Cc3ccccn3)s2)s1 [Compound 307]	6.4	9.3		
O=C(Cc1ccccc1)Nc1nnc(CCCCc2nnc(NC(=O)Cc3ccccn3)s2)s1 [Compound 310]	0.083	0.12		
O=C(O)Cc1cccc(CC(=O)Nc2nnc(CCCCc3nnc(NC(=O)Cc4cccc(CC(=O)O)c4)s3)s2)c1 [Compound 313]	0.27	94		
O=C(Cc1ccccc1)Nc1ccc(CCCCc2nnc(NC(=O)C(CO)c3ccccc3)s2)nn1 (centres unmarked) [Compound 314]	0.14	0.048		
CC(C)(C)OC(=O)NCc1cccc(CC(=O)Nc2nnc(CCCCc3nnc(NC(=O)Cc4cccc(CNC(=O)OC(C)(C)C)c4)s3)s2)c1 [Compound 324]	4.6	0.1		
NCc1cccc(CC(=O)Nc2nnc(CCCCc3nnc(NC(=O)Cc4cccc(CN)c4)s3)s2)c1 [Compound 325]	0.66	0.03	0.17	

Structure (SMILES)	IC50 [1] [µM]	IC50 (P493-6 (myc "on") cells; [3]) [µM]	IC50 [2] [µM]	IC50 (P493-6 (myc "on") cells; [4]) [µM]
Nc1cccc(CC(=O)Nc2nnc(CCCCc3nnc(NC(=O)Cc4cccc(N)c4)s3)s2)c1 [Compound 329]	0.17	0.45		
O=C(Cc1ccccc1)Nc1ccc(CCCCc2nnc(NC(=O)Cc3ccc(O)c(Cl)c3)s2)nn1 [Compound 336]	0.068	0.052		
O=C(Cc1ccccc1)Nc1ccc(CCCCc2nnc(NC(=O)Cc3cccc(O)c3)s2)nn1 [Compound 337]	0.073	0.021		
O=C(Cc1ccccc1)Nc1ccc(CCCCc2nnc(NC(=O)Cc3cccc(OCc4ccccc4)c3)s2)nn1 [Compound 338]	0.15	0.043		
O=C(Cc1ccccc1)Nc1ccc(CCCCc2nnc(NC(=O)[C@H](O)c3cccc(Cl)c3)s2)nn1 [Compound 340]	0.096	0.038		
O=C(Cc1ccccc1)Nc1ccc(CCCCc2nnc(NC(=O)C(O)c3cc(F)cc(F)c3)s2)nn1 (centres unmarked) [Compound 351]	0.11	0.049		
COc1cccc(CC(=O)Nc2nnc(CCCCc3ccc(NC(=O)Cc4ccccc4)nn3)s2)c1 [Compound 353]	0.049	0.021		
O=C(Cc1ccccc1)Nc1ccc(CCCCc2nnc(NC(=O)Cc3cccnc3)s2)nn1 [Compound 355]	0.1	0.039		
COc1cccc(CC(=O)Nc2nnc(CCSCCc3nnc(NC(=O)Cc4ccccn4)s3)s2)c1 [Compound 360]	0.28	0.67		
O=C(Cc1ccccc1)Nc1nnc(CCCCc2ccc(NC(=O)C(O)c3ccccc3)nn2)s1 (centres unmarked) [Compound 364]	0.15	0.26	0.03	
O=C(Cc1ccccc1)Nc1nnc(CCCCc2ccc(NC(=O)C(O)c3cccc(Cl)c3)nn2)s1 (centres unmarked) [Compound 365]	0.092	0.089	0.009	
COc1cccc(CC(=O)Nc2ccc(CCCCc3nnc(NC(=O)Cc4ccccc4)s3)nn2)c1 [Compound 366]	0.074	0.024		
NCc1cccc(CC(=O)Nc2ccc(CCCCc3nnc(NC(=O)Cc4ccccc4)s3)nn2)c1 [Compound 368]	0.11	0.017	0.009	
O=C(Cc1ccccc1)Nc1ccc(CCCCc2nnc(NC(=O)Cc3cccc(-n4ccnc4)c3)s2)nn1 [Compound 379]	0.097	0.038		
Cc1nccn1Cc1cccc(CC(=O)Nc2nnc(CCCCc3ccc(NC(=O)Cc4ccccc4)nn3)s2)c1 [Compound 380]	0.12	0.019		
O=C(Cc1ccccc1)Nc1ccc(CCCCc2nnc(NC(=O)Cc3cccc(OCCN4CCOCC4)c3)s2)nn1 [Compound 381]	0.16	0.018		
O=C(Cc1ccccn1)Nc1ccc(CCCCc2nnc(NC(=O)Cc3ccccc3)s2)nn1 [Compound 383]	0.086	0.022		
Nc1ccc(CCCCc2nnc(NC(=O)Cc3cccc(OCc4ccccc4)c3)s2)nn1 [Compound 385]	0.26	0.72		
O=C(Cc1ccccc1)Nc1ccc(CCCCc2nnc(NC(=O)OCc3ccccc3)s2)nn1 [Compound 386]	0.085	0.15		
O=C(Cc1cccc2cnccc12)Nc1nnc(CCCCc2nnc(NC(=O)Cc3cccc4cnccc34)s2)s1 [Compound 639]	0.17			23
O=C(Cc1cccc2[nH]ncc12)Nc1nnc(CCCCc2nnc(NC(=O)Cc3cccc4[nH]ncc34)s2)s1 [Compound 640]	0.12			0.07
O=C(Cc1cccc2ncccc12)Nc1nnc(CCCCc2nnc(NC(=O)Cc3cccc4ncccc34)s2)s1 [Compound 641]	0.14			0.5
CC(N)c1cc(CC(=O)Nc2ccc(CCCCc3nnc(NC(=O)Cc4ccccc4)s3)nn2)ccc1F (centres unmarked) [Compound 656]			0.018	0.4
O=C(Cc1ccccc1)Nc1ccc(CCCCc2nnc(NC(=O)Cc3cccc(OCC(F)(F)F)c3)s2)nn1 [Compound 665]			0.005	0.1
O=C(Cc1cccc(OCC(F)(F)F)c1)Nc1ccc(CCCCc2nnc(NC(=O)Cc3ccccc3)s2)nn1 [Compound 667]			0.004	0.11
